Here are results for eight molecules from ChEMBL document CHEMBL1201862, “PubChem BioAssay data set” (2004).

Assay in all cases: NCI-60 cell line screen, 48 h
Experiment [1] deals with A498.
Experiment [2] relates to A549.
Experiment [3] concerns DU-145.
For experiment [4], the system named is HOP-92.
For experiment [5], the system named is HT-29.
Experiment [6] has as its system LOX IMVI.
For experiment [7], the system named is MOLT-4.
Experiment [8] deals with Malme-3M.
Experiment [9] relates to NCI-H226.
Experiment [10] relates to NCI-H522.
The subject of experiment [11] is PC-3.
In experiment [12] the test system is SF-268.
The test system of experiment [13] is SN12C.
Experiment [14] concerns SNB-19.
The test system of experiment [15] is SNB-75.
Experiment [16] deals with SR.
Experiment [17] concerns SW-620.
Experiment [18] relates to T47D.
Experiment [19] deals with UACC-257.
Experiment [20] concerns NCI-H460.

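48-hour exposure; five concentrations; linearly interpolated endpoints. GI50 marks 50% less growth.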 Calls of active or inactive are those of the source. Rule as the data show it: active = GI50 up to about 1.1 µM and inactive = higher. Some results are limits rather than exact numbers.

As for `Clc1ccc(CN2CCCN(Cc3ccc(Cl)cc3)C2c2cc3ccccc3c3ccccc23)cc1`, the GI50 in experiment [1] is 19 µM (inactive); in experiment [2], > 100 µM (inactive); in experiment [3], 44.2 µM (inactive); in experiment [4], 74 µM (inactive); in experiment [5], 36.8 µM (inactive); in experiment [6], 36.5 µM (inactive). For the same molecule, the GI50 is 5.85 µM (inactive) in [7]; 18.4 µM (inactive) in experiment [8]; > 100 µM (inactive) in experiment [9]; 18.9 µM (inactive) in [10]; 24.3 µM (inactive) in experiment [11]; 44.3 µM (inactive) in [12]. The GI50 in [13] is 67.3 µM (inactive); in [14], > 100 µM (inactive); in [15], 22.4 µM (inactive); in experiment [16], 3.21 µM (inactive); in [17], 51.8 µM (inactive); in experiment [18] it was 32.4 µM (inactive). Also, in experiment [19], the GI50 is 22.8 µM (inactive).

With `N=C(N)SCc1cccc(-c2nc3ccccc3c(=O)o2)c1`, the GI50 in experiment [1], in [2], in [3], in experiment [4], in experiment [5] and in experiment [6] was > 100 µM (inactive) throughout. The GI50 in [8], in experiment [9], in experiment [20], in [10], in experiment [11] and in experiment [12] was > 100 µM (inactive) each time. Moreover, the GI50 in experiment [13] is > 100 µM (inactive); in experiment [14] it was > 100 µM (inactive); in experiment [15] it was > 100 µM (inactive); in [16] it was 95.5 µM (inactive); in experiment [17], > 100 µM (inactive); in experiment [18], > 100 µM (inactive). Moreover, in experiment [19], the GI50 is > 100 µM (inactive).

As for `CCOC(=O)C1=C(C)N(Cc2ccccc2)C2(O)C=CC(=O)C3C(=O)N(c4ccccc4)C(=O)C132` (centres undefined), the GI50 in experiment [1] is 14.5 µM (inactive); in experiment [2] it was 2.86 µM (inactive); in experiment [3] it was 2.15 µM (inactive); in experiment [4], 2.24 µM (inactive); in [5] it was 1.7 µM (inactive); in [6] it was 1.36 µM (inactive). Also, the GI50 is 2.11 µM (inactive) in [7]; 2.81 µM (inactive) in experiment [8]; 2.45 µM (inactive) in experiment [9]; 1.81 µM (inactive) in experiment [20]; 1.57 µM (inactive) in experiment [10]; 1.92 µM (inactive) in experiment [11]. The GI50 in [12] was 2.54 µM (inactive); in [13], 2.56 µM (inactive); in experiment [14], 7.52 µM (inactive); in experiment [16], 1.01 µM (active); in experiment [18] it was 2.42 µM (inactive); in experiment [19], 2.04 µM (inactive).

`COc1cc(S(=O)(=O)Nc2ccc(-c3csc(/N=C\c4cccs4)n3)cc2)ccc1Cl`: the GI50 in experiment [1] was 31.8 µM (inactive); in experiment [2], 78.7 µM (inactive); in experiment [3], 29.4 µM (inactive); in experiment [4], > 100 µM (inactive); in experiment [5], 57.1 µM (inactive); in experiment [6], 36.2 µM (inactive). Further, the GI50 is 78 µM (inactive) in experiment [8]; 57.4 µM (inactive) in experiment [9]; 53 µM (inactive) in experiment [20]; 32.4 µM (inactive) in experiment [10]; > 100 µM (inactive) in [11]; 33.7 µM (inactive) in [12]. Moreover, the GI50 in experiment [13] was 89.5 µM (inactive); in experiment [14] it was 32.6 µM (inactive); in [15], 30.3 µM (inactive); in [16], 15.7 µM (inactive); in [17], 34.3 µM (inactive); in experiment [18], 19.2 µM (inactive). Besides, the GI50 in experiment [19] was 51.8 µM (inactive).

Regarding `CCOC(=O)C12C(=O)CCN1CCc1ccccc1C2C` (centres undefined), the GI50 in experiment [1], in [2], in experiment [3], in [4], in experiment [5] and in [6] was > 100 µM (inactive) each time. Moreover, the GI50 in experiment [7], in [8], in experiment [9], in experiment [10], in [11] and in [12] was > 100 µM (inactive) each time. The GI50 in [13], in experiment [14], in [16], in experiment [17], in experiment [18] and in [19] was > 100 µM (inactive) in each case.

As for `Cc1c(C)c2c(c(N)c1C#N)C(=O)N(N)C2=O`, the GI50 is 40.4 µM (inactive) in experiment [1]; > 100 µM (inactive) in [2]; > 100 µM (inactive) in experiment [3]; > 100 µM (inactive) in [4]; > 100 µM (inactive) in experiment [5]; 61.7 µM (inactive) in experiment [7]. Besides, the GI50 is > 100 µM (inactive) in [8]; 78.7 µM (inactive) in [9]; > 100 µM (inactive) in experiment [20]; > 100 µM (inactive) in experiment [10]; > 100 µM (inactive) in [11]; > 100 µM (inactive) in [12]. The GI50 is > 100 µM (inactive) in [13]; > 100 µM (inactive) in experiment [14]; 47 µM (inactive) in [15]; 26.3 µM (inactive) in experiment [16]; 80.5 µM (inactive) in experiment [17]; > 100 µM (inactive) in experiment [18]. For the same molecule, in experiment [19], the GI50 was > 100 µM (inactive).

Consider `COc1ccc(CCNC(=O)Cc2ccccc2CO)cc1OC`, for which the GI50 in [1], in experiment [2], in [3], in experiment [4], in experiment [5] and in experiment [6] was > 100 µM (inactive) throughout. Moreover, the GI50 in experiment [7], in [9], in [20], in [10], in [11] and in experiment [12] was > 100 µM (inactive) each time. Moreover, the GI50 in [13], in experiment [15], in experiment [16], in [17], in experiment [18] and in experiment [19] was > 100 µM (inactive) throughout.

In the case of `COc1ccc(-c2oc3c(OC)c(OC)c(OC)c(OC)c3c(=O)c2OC)cc1OC` [3,5,6,7,8,3',4'-HEPTAMETHOXYFLAVONE], the GI50 in experiment [1] was 31 µM (inactive); in experiment [2], 70.6 µM (inactive); in [3] it was 55.1 µM (inactive); in experiment [4] it was 0.0481 µM (active); in experiment [5], 26.5 µM (inactive); in experiment [6], 27 µM (inactive). For the same molecule, the GI50 in experiment [7] was 22.4 µM (inactive); in [8], 28 µM (inactive); in experiment [9] it was 48.9 µM (inactive); in experiment [20], 19.8 µM (inactive); in experiment [10], 19.4 µM (inactive); in experiment [11], 26.6 µM (inactive). The GI50 is 5.45 µM (inactive) in experiment [12]; 93.3 µM (inactive) in experiment [13]; > 100 µM (inactive) in experiment [14]; 19.1 µM (inactive) in experiment [16]; 32.8 µM (inactive) in experiment [17]; 22.4 µM (inactive) in [18]. For the same molecule, the GI50 in experiment [19] was 53.1 µM (inactive).
